Here are results for 1 compound from patent US20170029451A1, “BRANCHED CHAIN ACYCLIC NUCLEOSIDE PHOSPHONATE ESTERS AND METHODS OF SYNTHESIS AND USES THEREOF” (CHIMERIX, INC., priority 2013, published 2017).

The nature of data set [1]: in vitro. The note with it: human.
Data set [2] concerns Influenza virus B/FL/4/2006. The data set is described as follows: microbe, parasite or virus in culture. The format is cell-based. As to conditions: unidentified influenza virus, MDCK, read-out: B/FL/4/2006 (EC50, μM).
The next data set relates to Epstein-Barr virus. In words: DNA Hybridization Assay for EBV in Akata cells. The data set is classed as cell-based. The note with it: human gammaherpesvirus 4, read-out: Efficacy DNA Hybridization Assay (EC50). How it is done:
Akata cells latently infected with EBV were obtained from John Sixbey. The GS strain of HHV-6A was obtained through the NIH AIDS Research and Reference Reagent Program.
Each experiment that evaluated the antiviral activity of the compounds included both positive and negative control compounds to ensure the performance of each assay. Concurrent assessment of cytotoxicity was also performed for each study at equivalent levels of compound exposure. When sufficient material was available, multiple assays were performed for each compound evaluation to obtain statistical data.
Assays for EBV were performed in Akata cells that were induced to undergo a lytic infection with 50 μg/ml of a goat anti-human IgG antibody by standard methods. Experimental compounds were diluted in round bottom 96-well plates to yield concentrations ranging from 20 to 0.016 μM. Akata cells were added to the plates at a concentration of 4×10^4 cells per well and incubated for 72 h. For HHV-6 assays, compounds were serially diluted in 96-well plates then 1×10^4 uninfected HSB-2 or Molt-3 cells were added to each well. Infection was initiated by adding HHV-6A infected HSB-2 cells, or HHV-6B infected Molt-3 cells, at a ratio of approximately 1 infected cell for every 10 uninfected HSB-2 cells or Molt-3 cells respectively and incubated for 7 d at 37° C. […]

For the next data set, the system named is HHV-8. In words: HHV-8 antiviral activity in BCBL-1 cells. The format is cell-based, human herpes virus 8 (HHV-8). As to conditions: Homo sapiens, BCBL1; Virus HHV-8, cell line BCBL-1.
The next data set has as its system Poliovirus 3. The data set is described as follows: microbe, parasite or virus in culture. The data set is classed as cell-based. The note with it: Enterovirus C, Vero 76.
Data set [3] can be described thus: in vitro. As to conditions: dog.
A short description of data set [4]: Cytotoxicity in BCBL-1 cells. The data set is classed as cell-based. As to conditions: human, cell line BCBL-1 (HHV-8 row). On the procedure: Cell viability in all assays with lymphocytes was assessed with the CellTiter-Glo Luminescent Cell Viability Assay (Promega). Briefly, assay plates were incubated at ambient temperature for 30 min then 50 µl of CellTiter-Glo reagent was added to each well and the plates were mixed for 2 min on an orbital shaker to lyse the cells. Plates were then incubated for an additional 10 min at ambient temperature and the luminescence was quantified on a luminometer. Standard methods were used to calculate drug concentrations that inhibited the proliferation of Akata, HSB-2, BCLB-1, or Molt-3 cells by 50% (CC50).

Data set [5] concerns Human Cytomegalovirus (HCMV). The data set is described as follows: HCMV EC50 in MRC-5 cells (qPCR of intracellular CMV DNA). The format is cell-based. How it is done: Costar 96-well tissue culture plates were seeded with 20,000 MRC-5 cells/well in EMEM containing 2% Hyclone Standard Fetal Bovine Serum and 1% Hyclone Penicillin and Streptomycin. Outer wells were not used to minimize the edge-effect produced by extended incubations. Cells were inoculated with HCMV at an MOI of 0.01. Serial dilutions of test compounds were added to the cells and plates were incubated for 7 days at 37° C. in 5% CO2. […] Culture medium was gently removed from infected cells after the 7-day incubation. The cells were rinsed twice with ice-cold PBS, and then freeze/thawed once. Each well was incubated with 200 μL lysis buffer for 2 hours at 55° C. Lysis buffer included 0.5 mg/mL protease K, 50 mM KCl, 10 mM Tris-Cl pH 8.0, 2.5 mM MgCl2, 0.45% IGEPAL, and 0.45% Tween-20 dissolved in DEPC-treated water. Intracellular CMV DNA was measured by quantitative polymerase chain reaction (qPCR) using forward and reverse HCMV PCR primers, and a FAM-labeled probe. Absolute quantitation of viral copy number was performed using a standard curve with dilutions of a HCMV DNA amplicon containing sequences homologous to the amplified fragment. The following qPCR amplification conditions were used: 1 cycle at 95° C. for 10 minutes, followed by 45 cycles of 95° C. for 15 seconds and 60° C. for 60 seconds. The qPCR reactions were performed using an Applied Biosystems 7500 real Time PCR System. Gen 5 software (BioTek Instruments, Inc.) was used to calculate the concentration which inhibited the viral DNA levels of HCMV-infected MRC-5 cells by 50% (EC50).

In data set [6] the test system is HCMV UL54 resistant mutant 4955^R. The data set is described as follows: microbe, parasite or virus in culture. The note with it: Human betaherpesvirus 5, Fibroblast. The format is cell-based, Human Cytomegalovirus (HCMV).

Like-named read-outs stand apart in the source and are kept apart here.

As for `CC(C)CCCCCCCCCCCCCCOCCCOP(=O)(O)COC(CO)Cn1ccc(=O)[nH]c1=O` (stereo not shown) [Compound 12], the CC50 in “in vitro [1]” is > 20 µM; in the data set “in vitro [1]” (CC50 (μM)), 36.9 µM; in “in vitro [3]”, 17200 nM; in data set [4] it was > 10000 nM. Moreover, the EC50 was > 4 µM in data set [2]; > 10000 nM in the data set with Epstein-Barr virus; < 80 nM in the data set with HHV-8; 3300 nM in the data set with Poliovirus 3; 27 nM in data set [5] (Human betaherpesvirus 5, MRC5, HCMV in MRC-5 cells (Table 7), read-out: CMV EC50); 17 nM in [5] (Human betaherpesvirus 5, MRC5, Mean XC50 (Table 9), read-out: HCMV EC50). Further, the EC50 is 17 nM in [5] (Human betaherpesvirus 5, Virus HCMV, cell line MRC5 (Table 8), read-out: EC50) and ~0.143 µM in [6] (read-out: EC50 μM, Virus 4955^R, human foreskin fibroblast cells). In data set [6] (read-out: EC90 μM), the EC90 worked out at 0.372 µM.

Broadly, the EC90 is the concentration needed for an effect of 90%.
